Experimental findings from the NIST ThermoML archive (doi:10.1021/je7003337) are described below.

± gives the expanded uncertainty stated by the source.

The series in a line: refractive index (Na D-line) (dimensionless). The settings on record: 298.15 K; 101.33 kPa; Liquid; Standard Abbe refractometry.

For `Cc1ccc(C)cc1` [1,4-dimethylbenzene], the refractive index was 1.49321 ± 0.00072. In the case of `CCCCCC` [hexane], the refractive index turned out to be 1.37226 ± 0.00072.
